Laboratory results published in patent US20240101589A1, “INHIBITORS OF METTL3” (Strom Therapeutics Limited, priority 2020, published 2024).

What was measured:
[1] = test system: KASUMI-1 cells; test: Kasumi cell proliferation CTG; format: cell-based; settings: treated for 120 hours, CellTiter-Glo
Method: Cell culture: KASUMI-1 cells (ACC20, Leibniz-Institut DSMZ Deutsche Sammlung von Mikroorganismen und Zellkulturen GmbH) were grown in RPMI 1640 (31870-025, Gibco) supplemented with 20% fetal bovine serum (F1524, Gibco), 1 mM sodium pyruvate (11360-039, Gibco) and 2 mM Glutamax (35050-038, Gibco) in a 5% CO2 humidified incubator at 37° C.
Cell treatment and cell growth assessment: KASUMI-1 cells were seeded in ultra-low attachment 384-well culture plate (MS-9384WZ, SBio) at a final concentration of 250 000 cells/ml (35 μL/well) and treated for 120 hours with compounds inhibiting the METTL3/14 activity (10 serial semi-log dilutions, 30 μM as top concentration). Upon treatment, Kasumi1 cells were incubated for 10 min at RT with the CellTiter-Glo reagent (G7571, Promega). Measurement of the luminescence signal was performed on a microplate reader (Ensight, PerkinElmer).

[2] = test system: Caov-3 cells; test: Caov3 cell proliferation CTG; format: cell-based; settings: Homo sapiens, treated for 120 hours, CellTiter-Glo
Method: Cell treatment and cell growth assessment: 18 hours post-seeding in white 384-Viewplate (6007480, PerkinElmer) at 1500 cells/well, Caov3 cells were treated for 120 hours with compounds inhibiting the METTL3/14 activity (10 serial semi-log dilutions, 30 μM as top concentration). Upon treatment, Coav-3 cells were incubated for 10 min at RT with the CellTiter-Glo reagent (G7571, Promega). Measurement of the luminescence signal was performed on a microplate reader (Ensight, PerkinElmer).

[3] = biological target: METTL3/14 (Homo sapiens (Human), UniProt Q86U44); test: METTL3/14 methyltransferase assay (RapidFire mass spectrometry, RFMS); format: biochemical; settings: 5 nM METTL3/14, 0.2 μM RNA substrate, 0.5 μM SAM, 60 minutes at room temperature
Sequence of METTL3/14 (Q86U44 whole entry): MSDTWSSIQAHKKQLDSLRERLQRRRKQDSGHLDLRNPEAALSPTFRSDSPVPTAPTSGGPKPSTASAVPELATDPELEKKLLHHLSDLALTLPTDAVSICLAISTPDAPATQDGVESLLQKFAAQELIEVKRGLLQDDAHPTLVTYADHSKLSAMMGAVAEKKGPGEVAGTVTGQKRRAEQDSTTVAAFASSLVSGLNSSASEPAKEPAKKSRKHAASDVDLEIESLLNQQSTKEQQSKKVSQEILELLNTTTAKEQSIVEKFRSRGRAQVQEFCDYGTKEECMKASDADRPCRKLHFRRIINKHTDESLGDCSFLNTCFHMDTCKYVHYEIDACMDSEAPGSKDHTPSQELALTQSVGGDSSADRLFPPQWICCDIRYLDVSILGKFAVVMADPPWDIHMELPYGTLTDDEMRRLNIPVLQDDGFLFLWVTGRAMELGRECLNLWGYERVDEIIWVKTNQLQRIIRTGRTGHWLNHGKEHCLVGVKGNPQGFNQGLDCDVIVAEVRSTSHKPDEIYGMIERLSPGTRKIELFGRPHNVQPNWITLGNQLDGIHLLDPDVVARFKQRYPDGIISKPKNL
Sequence of METTL3/14 (Q9HCE5 whole entry partner): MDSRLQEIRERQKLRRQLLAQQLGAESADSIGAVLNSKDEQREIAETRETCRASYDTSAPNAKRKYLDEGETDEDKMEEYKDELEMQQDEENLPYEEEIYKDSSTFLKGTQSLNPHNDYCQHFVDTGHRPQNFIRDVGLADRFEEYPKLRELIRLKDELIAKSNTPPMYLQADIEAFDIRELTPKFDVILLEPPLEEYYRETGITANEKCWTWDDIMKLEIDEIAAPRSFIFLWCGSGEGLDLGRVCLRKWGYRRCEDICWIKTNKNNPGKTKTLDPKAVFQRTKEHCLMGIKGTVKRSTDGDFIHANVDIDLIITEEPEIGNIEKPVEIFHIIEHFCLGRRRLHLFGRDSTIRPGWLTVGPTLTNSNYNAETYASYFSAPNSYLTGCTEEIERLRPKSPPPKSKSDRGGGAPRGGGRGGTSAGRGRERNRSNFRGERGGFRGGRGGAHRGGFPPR
Method: The enzymatic assay was established to determine IC50 values for inhibition of RNA methyltransferase activity. The enzyme used was full-length his-tagged METTL3 co-expressed with full length FLAG-tagged METTL14 in a baculovirus expression system. Enzymatic reactions were performed at room temperature in 384-well plates using a final reaction volume of 20 μL containing 20 mM TrisCl pH 7.6, 1 mM DTT, 0.01% Tween-20. 5 nM final concentration of METTL3/14 was pre-incubated with various compound concentrations for 10 minutes, followed by addition of 0.2 μM final concentration synthetic RNA substrate (5′P-[…]-3′) and 0.5 μM final concentration S-adenosyl-methionine (SAM). The reaction was incubated for a further 60 minutes at room temperature, and then quenched by the addition of 40 μL 7.5% TCA with two internal product standards (D4-SAH and 13C10-SAH). After termination, plates were sealed, centrifuged and stored at 4° C. until analysis.
RNA methyltransferase activity was measured label free using the RapidFire™ mass spectrometry (RF/MS) platform. Stopped and stable assay plates were analyzed on the Agilent RF300 integrated autosampler/solid-phase extraction (SPE) system coupled to an ABSciex 4000 mass spectrometer for the generation of the product S-adenosyl homocysteine (SAH) and normalized to the ratio of signal of the two internal product standards, respectively. Solvent A was water containing 0.1% (v/v) TCA. Solvent B was acetonitrile/0.1% ammonium acetate (8:2, v/v). More specifically, plates were centrifuged at 4350 rpm for 10 min, samples were aspirated under vacuum for 600 ms, then loaded onto a C18 solid-phase extraction cartridge and washed for 3 s with solvent A at a flow rate of 1.5 mL/min. Retained product and internal standards were eluted with solvent B at a flow rate of 1 mL/min for 3 s and finally the cartridge was re-equilibrated with solvent A for 500 ms. The mass transition for the product (SAH) was 384.9/135.9 Da. Transitions of the two internal product standards (IS1: D4-SAH and IS2: 13C10-SAH) were 389.1/135.8 Da and 395.0/134.2 Da, respectively. Ratios of SAH/IS1 and SAH/IS2 were used for normalization of matrix effects. IC50 values were calculated based on dilution series of individual compounds. Potency of a compound was measured at varied inhibitor concentrations and normalized to control wells without RNA substrate and without inhibition (DMSO only).

Row | SMILES | IC50 ([1]; Homo sapiens, Kasumi 1, 120 h) | IC50 [2] | IC50 [3] | IC50 [1]
1 | Nc1ncnc2c1c(Br)cn2[C@@H]1C[C@H](c2ccc(CNCC3CCC3)cc2)[C@@H](O)[C@H]1O [Example 10, (1R,2S,3R,5R)-3-(4-amino-5-bromo-7H-pyrrolo[2,3-d]pyrimidin-7-yl)-5-(4-(((cyclobutylmethyl)amino)methyl)phenyl)cyclopentane-1,2-diol] | 4400 nM | 6500 nM | 150 nM | 
2 | Nc1ncnc2c1c(Br)cn2[C@@H]1C[C@H](c2cccc(CCNCC34CC(F)(C3)C4)c2)[C@@H](O)[C@H]1O [Example 37, (1R,2S,3R,5R)-3-{4-amino-5-bromo-7H-pyrrolo[2,3-d]pyrimidin-7-yl}-5-(3-{2-[{{3-fluorobicyclo[1.1.1]pentan-1-yl}methyl)amino]ethyl}phenyl)cyclopentane-1,2-diol] | 2140 nM | 3260 nM | 117 nM | 
3 | Nc1ncnc2c1c(Br)cn2[C@@H]1C[C@H](c2ccc3cc(CNCC45CC(F)(C4)C5)[nH]c3c2)[C@@H](O)[C@H]1O [Example 11, (1R,2S,3R,5R)-3-{4-amino-5-bromo-7H-pyrrolo[2,3-d]pyrimidin-7-yl}-5-(2-{[({3-fluorobicyclo[1.1.1]pentan-1-yl}methyl)amino]methyl}-1H-indol-6-yl)cyclopentane-1,2-diol] | 950 nM | 250 nM |  | 
4 | Nc1ncnc2c1c(Br)cn2[C@@H]1O[C@H](/C=C/CCCNCC2CCC2)[C@@H](O)[C@H]1O [Example 2, (2R,3R,4S,5R)-2-{4-amino-5-bromo-7H-pyrrolo[2,3-d]pyrimidin-7-yl}-5-[(1E)-5-[(cyclobutylmethyl)amino]pent-1-en-1-yl]oxolane-3,4-diol] | 7300 nM | 3800 nM | 42.6 nM | 
5 | Nc1ncnc2c1c(Br)cn2[C@@H]1C[C@H](c2ccc(CNCC34CC(F)(C3)C4)cc2)[C@@H](O)[C@H]1O [Example 34, (1R,2S,3R,5R)-3-{4-amino-5-bromo-7H-pyrrolo[2,3-d]pyrimidin-7-yl}-5-(4-{[({3-fluorobicyclo[1.1.1]pentan-1-yl}methyl)amino]methyl}phenyl)cyclopentane-1,2-diol] | 2390 nM | 1880 nM | 9.11 nM | 
6 | Nc1ncnc2c1c(Br)cn2[C@@H]1O[C@H](/C=C/CCCNCc2ccccc2)[C@@H](O)[C@H]1O [Example 5, (2R,3R,4S,5R)-2-{4-amino-5-bromo-7H-pyrrolo[2,3-d]pyrimidin-7-yl}-5-[(1E)-5-(benzylamino)pent-1-en-1-yl]oxolane-3,4-diol] |  | 330 nM | 196 nM | 360 nM
7 | Nc1ncnc2c1c(Br)cn2[C@@H]1C[C@H](c2ccc(CCNCC34CC(F)(C3)C4)cc2)[C@@H](O)[C@H]1O [Example 12, (1R,2S,3R,5R)-3-{4-amino-5-bromo-7H-pyrrolo[2,3-d]pyrimidin-7-yl}-5-(4-{2-[({3-fluorobicyclo[1.1.1]pentan-1-yl}methyl)amino]ethyl}phenyl)cyclopentane-1,2-diol] | 4900 nM | 8300 nM | 46.6 nM | 
8 | Nc1ncnc2c1ccn2[C@@H]1C[C@H](c2ccc3cc(CN4CCC5(CCC5)C4)[nH]c3c2)[C@@H](O)[C@H]1O [Example 33, (1R,2S,3R,5R)-3-{4-amino-7H-pyrrolo[2,3-d]pyrimidin-7-yl}-5-[2-({6-azaspiro[3.4]octan-6-yl}methyl)-1H-indol-6-yl]cyclopentane-1,2-diol] | 1390 nM | 276 nM | 6.22 nM | 
9 | Nc1ncnc2c1c(Br)cn2[C@H]1C[C@H](O)[C@@H](/C=C/CCCNCC23CC(F)(C2)C3)O1 [Example 22, (2R,3S,5R)-5-(4-amino-5-bromo-pyrrolo[2,3-d]pyrimidin-7-yl)-2-[(E)-5-[(3-fluoro-1-bicyclo[1.1.1]pentanyl)methylamino]pent-1-enyl]tetrahydrofuran-3-ol] | 4280 nM | 2880 nM | 12.8 nM | 
10 | CC1(C)CCN(Cc2ccc([C@H]3C[C@@H](n4cc(Br)c5c(N)ncnc54)[C@H](O)[C@@H]3O)cc2)CC1 [Example 36, (1R,2S,3R,5R)-3-{4-amino-5-bromo-7H-pyrrolo[2,3-d]pyrimidin-7-yl}-5-{4-[(4,4-dimethylpiperidin-1-yl)methyl]phenyl}cyclopentane-1,2-diol] | 5270 nM | 7750 nM | 103 nM | 
11 | Nc1ncnc2c1c(Br)cn2[C@@H]1C[C@H](c2cccc(CN3CCC4(CCC4)C3)c2)[C@@H](O)[C@H]1O [Example 38, (1R,2S,3R,5R)-3-{4-amino-5-bromo-7H-pyrrolo[2,3-d]pyrimidin-7-yl}-5-[3-({6-azaspiro[3.4]octan-6-yl}methyl)phenyl]cyclopentane-1,2-diol] | 2950 nM | 6760 nM | 2640 nM | 
12 | Nc1ncnc2c1c(Br)cn2[C@@H]1C[C@H](c2ccc3[nH]c(CNCC45CC(F)(C4)C5)cc3c2)[C@@H](O)[C@H]1O [Example 31, (1R,2S,3R,5R)-3-{4-amino-5-bromo-7H-pyrrolo[2,3-d]pyrimidin-7-yl}-5-(2-{[{{3-fluorobicyclo[1.1.1]pentan-1-yl}methyl)amino]methyl}-1H-indol-5-yl)cyclopentane-1,2-diol] | 1930 nM | 2650 nM | 8.24 nM | 
13 | Nc1ncnc2c1c(Br)cn2[C@@H]1C[C@H](c2ccc3cc(CN4CCC5(CCC5)C4)[nH]c3c2)[C@@H](O)[C@H]1O [Example 32, (1R,2S,3R,5R)-3-{4-amino-5-bromo-7H-pyrrolo[2,3-d]pyrimidin-7-yl}-5-[2-({6-azaspiro[3.4]octan-6-yl}methyl)-1H-indol-6-yl]cyclopentane-1,2-diol] | 1220 nM | 551 nM | 6.1 nM | 
14 | Nc1ncnc2c1c(Br)cn2[C@@H]1C[C@H](c2ccc(CN3CCC4(CCC4)C3)cc2)[C@@H](O)[C@H]1O [Example 35, (1R,2S,3R,5R)-3-{4-amino-5-bromo-7H-pyrrolo[2,3-d]pyrimidin-7-yl}-5-[4-({6-azaspiro[3.4]octan-6-yl}methyl)phenyl]cyclopentane-1,2-diol] | 4160 nM | 4560 nM | 63.7 nM | 
15 | Nc1ncnc2c1c(Br)cn2[C@@H]1O[C@H](CC/C=C/CNCc2ccccc2)[C@@H](O)[C@H]1O [Example 9, (2R,3R,4S,5R)-2-(4-amino-5-bromo-7H-pyrrolo[2,3-d]pyrimidin-7-yl)-5-((E)-5-(benzylamino)pent-3-en-1-yl)tetrahydrofuran-3,4-diol] | 4600 nM | 5700 nM | 123 nM | 
16 | Nc1ncnc2c1c(Br)cn2[C@@H]1O[C@H](/C=C/CCCN2CCC3(CCC3)C2)[C@@H](O)[C@H]1O [Example 21] | 4850 nM | 4570 nM | 23.9 nM | 
17 | Nc1ncnc2c1c(Br)cn2[C@@H]1C[C@H](c2cccc(CNCC34CC(F)(C3)C4)c2)[C@@H](O)[C@H]1O [Example 39, (1R,2S,3R,5R)-3-{4-amino-5-bromo-7H-pyrrolo[2,3-d]pyrimidin-7-yl}-5-(3-{[{{3-fluorobicyclo[1.1.1]pentan-1-yl}methyl)amino]methyl}phenyl)cyclopentane-1,2-diol] | 2390 nM | 4640 nM | 3010 nM | 
18 | Nc1ncnc2c1c(Br)cn2[C@@H]1O[C@H](/C=C/CCCNCC23CC(F)(C2)C3)[C@@H](O)[C@H]1O [Example 6] | 1600 nM | 400 nM |  | 
